Measurements published in US4618681A, “Aryl substituted 1H-4,5-dihydro-1,2,3-triazoles as anticonvulsants” (priority 1984, dated 1986).
Entries after “also recorded” stand apart in the source; their conditions may differ. Where two headings read alike, the source gives them in different places.

Experiments:
[1] = Maximal electroshock seizure (MES) pattern test in rats; format: in vivo, rats (male albino, Sprague Dawley)
Experimental: (§1) All animals were allowed free access to both food (S/L Custom Lab Diet-7) and water, except when they were removed from their cages for the experimental procedure.
(§2) The drugs were administered either orally or intraperitoneally in a volume of 0.01 ml/g body weight in mice and 0.04 ml/10 g in rats. All tests were conducted at the previously determined time of peak drug effect.
(§3) The profile of anticonvulsant activity for each substance was established by five tests: one electrical and four chemical. The electrical test employed was the maximal electroshock seizure pattern test. […] Except for the sc Strych Test, these tests measure the ability of anticonvulsants to afford complete protection against threshold seizures induced by the subcutaneous injection of the CD97 of the convulsant agent.

[2] = Subcutaneous Metrazol Seizure Threshold Test (sc Met) in rats; format: in vivo, rats (male albino, Sprague Dawley)
Experimental: as §2, §3
(§4) All convulsants were administered subcutaneously into a loose fold of skin on the back of the neck in a volume of 0.01 ml/g body weight in mice; Metrazol was injected in a volume of 0.02 ml/10 g body weight in rats. The convulsant drugs were administered at the previously determined time of peak anticonvulsant action of the drug under study. […] Except for strychnine, absence of a five-second episode of clonic spasms (threshold seizure) was taken as protection. In the case of strychnine, complete abolition of the hindleg tonic extension was taken as protection.

[3] = format: in vivo; details: Phase V, mice, i.p.
Experimental: as §3, §4

in vivo [4] = assay: in vivo; design: species or system mice; details: mouse, in vivo, ip
Experimental: (§5) The profile of toxicity for each test drug was established by the following procedures: firstly, the minimal neurotoxic dose (TD50) was determined by the rotorod procedure at the time of peak neurotoxic effect. When a normal mouse is placed on a knurled rod one inch in diameter rotating at a speed of six rpm it can maintain its equilibrium for long periods of time. Neurological deficit is indicated by inability of the mouse to maintain its equilibrium for one minute in each of three trials on this rotating rod. Neurological deficit in rats is indicated by ataxia, loss of placing response and muscle tone. […] These observations also provide preliminary information essential for the subsequent determination of the HD50 and LD50. The HD50 represents the median dose at which 50% of animals lose their righting reflex.

in vivo [5] = details: mouse, in vivo; for selectivity ratio: mice, i.p.
Experimental: as §5

[6] = Phase III Toxicity Profile in mice i.p. (overt signs of toxicity); format: in vivo
Text: […]. […] […]. […] […].

[7] = design: species or system mice; details: mouse, in vivo, ip, 1132 mg/kg
Experimental: Consequently, it was necessary to administer the high doses required for the righting reflex and 24-hour lethality tests in mice in double the volume. In view of this fact, additional studies were done to determine the effect of this double volume on the time of peak effect of the test substance. […] […]. Moreover, 1, 3, and 4 of the 8 mice were dead at 20, 40, and 46 hours, respectively. […] Accordingly, additional pharmacokinetic and pharmacodynamic studies will be done in order to reveal mechanisms that may contribute to the long TPE for neurotoxicity and the abnormally low ratio between the minimal-toxic dose and the 24-hour lethal dose.

[8] = Oral absorption in mice (oral/i.p. ratios); format: in vivo
Text: The extent of oral absorption can be determined from the ratio of the oral ED50/i.p. […] In mice the oral TD50/i.p. TD50 and oral ED50/i.p.

[9] = mouse, in vivo
Experimental: as §1, §2, §3, §4

[10] = not given; remark: listed apart in the source
[11] = not given; remark: listed apart in the source
[12] = mouse, in vivo; remark: listed apart in the source
Experimental: as §2, §5

[13] = not given; remark: listed apart in the source
in vivo [14] = details: mouse
Experimental: as §2, §5

in vivo [15] = details: rat, po
Experimental: as §2, §5

[16] = Time of peak effect (TPE) over several tests in mice
Experimental: as §2

[17] = Time of peak effect (TPE) over several tests in rats; details: p.o., Compound 9: toxicity, MES and sc Met tests
Experimental: as §2

[18] = Phase I anticonvulsant screening (MES and scMet tests); details: in words
[19] = Subcutaneous Metrazol Seizure Threshold Test (sc Met) in mice; details: for ED50: Mus musculus
Experimental: as §1, §2, §3, §4

[20] = 300 mg/kg, four hours after administration
[21] = mice, i.p., from safety ratio TD3/ED97

Clc1ccc(N2N=NCC2c2ccncc2)cc1 (stereo not drawn) [Compound 9, 1-(p-Chlorophenyl)-5-(4-pyridyl)-Δ^2-1,2,3-triazoline]
ED50 ([1]; Rattus norvegicus, po, rats): 266 mg/kg | anticonvulsant potency by MES, rats compared with mice ([1]; oral administration): no significant difference in the anticonvulsant potency | 97% protection in nontoxic doses, MES ([1]; rats, p.o.): do not provide 97% protection | ED50 ([2]; Rattus norvegicus, po, rats, p.o., read-out: ED50 sc Met): 278 mg/kg | anticonvulsant potency by sc Met, rats compared with mice ([2]; oral administration): no significant difference in the anticonvulsant potency | 97% protection in nontoxic doses, sc Met ([2]; rats, p.o.): do not provide 97% protection | effectiveness by the sc Strych test [3]: not effective against sc Strych; also recorded: ineffective after i.p. administration in mice by the sc Strych test | Slope, regression line, HD50 (righting reflex) (in vivo [4]): 4.27 | TD50 (in vivo [4]): 2050 mg/kg | Time of Test / time of peak toxicity, righting reflex (in vivo [4]): 24 h | selectivity (slope of regression line), 24-hour lethality (in vivo [5]): lack of selectivity (flat regression lines) | margin between the minimal toxic dose and the 24-hour lethal dose (in vivo [5]; ip): probably not satisfactory | selectivity ratio (in vivo [5]; ip, 24-hour LD50, rotorod TD50, read-out: Ratio LD50/TD50): 1.88 | selectivity ratio (in vivo [5]; ip, 24-hour LD50, read-out: Ratio LD50/HD50): 1.04 | LD50 at 24 h (in vivo [5]; ip, read-out: LD50 (lethality)): 2130 mg/kg | toxicity profile ([6]; mice, i.p., 1TD50, 2TD50's and 4TD50's): decreased motor activity, ataxia, decreased respiration and cyanosis | toxicity at the end of 24 hours ([6]; mice, i.p., 2TD50's): One of two animals given 2TD50's was still ataxic and cyanotic at the end of 24 hours | dead 24 hours after drug administration ([6]; mice, i.p., 4TD50's): Both mice given 4TD50's of Compound 9 were dead 24 hours after drug administration | rotorod toxicity ([6]; mouse, in vivo, ip): one of two animals given 4TD50's displayed rotorod toxicity | gross examination of the peritoneal cavity [7]: an unevacuated stomach that was approximately three times normal size; an empty, flaccid small intestine; and a vermiform appendix markedly enlarged from flatus | absorption after oral administration [8]: adequately absorbed in mice after oral administration | activity by the MES test [20]: ineffective by the MES test (although the tonic extension was slow) | ED50 MES (mice, i.p.): 257.42 mg/kg | Protective Index (P.I.) = TD50/ED50, MES (mice, i.p.): 4.40 | Time of Test / time of peak effect (TPE), MES (mice, i.p.): 1/2 | mice protected, MES, nontoxic doses [21]: 97% | ED50 MES (mice, p.o.): 290.72 mg/kg | potency relative to phenobarbital, MES (mice, p.o.): 1/15 | potency relative to phenytoin, MES (mice, p.o.): 1/32 | 97% protection in nontoxic doses, oral (mice, p.o., MES): the same level of protection is obtained only in mice subjected to the MES test | oral ED50/i.p. ED50, MES (mouse, in vivo): 1.13 | safety ratio TD3/ED97, MES (mouse, in vivo): 1.13 | P.I. by the MES test (mouse, in vivo, po): 2.42 | profile of anticonvulsant activity, electroshock (nontoxic doses): ability to modify maximal electroshock seizure pattern | oral ED50/i.p. ED50, sc Met [9]: 3.50 | P.I. by the scMet test ([9]; po): 4.62 | P.I. derived from the sc Met test ([9]; sc): high | P.I. against sc Bic, times higher than that for phenobarbital ([10]; Phase V, mice, i.p.): fifty | effectiveness by the sc Bic test ([10]; Phase V, mice, i.p.): effective against sc Met, sc Bic, and sc Pic in nontoxic doses | P.I. derived from the sc Bic test ([10]; in words): high | P.I. by the sc Pic test compared with phenobarbital, ethosuximide and valproate ([11]; Phase V, mice, i.p.): compares favorably with those for phenobarbital, ethosuximide, and valproate | effectiveness by the sc Pic test ([11]; Phase V, mice, i.p.): lesser effectiveness by the sc Pic test | selectivity (slope of regression line), sc Pic test ([11]; in words): lack of selectivity (flat regression lines) | TPE (rotorod) ([12]; ip): 12 and 20 | TPE by the rotorod test ([12]; po): 24 h | deaths ([12]; po, 600 mg/kg): 1 of 8 | deaths (of 8) ([12]; po, 700 mg/kg): 6 | deaths ([12]; po, 800 mg/kg): 1 of 8 | deaths ([12]; po, 1000 mg/kg): 4 of 8 | neurotoxicity, rats compared with mice ([13]; rat, in vivo, po): significantly more neurotoxic in rats than it is in mice | toxicity relative to phenobarbital ([13]; rats, p.o.): one-fifth to one-sixth | selectivity ratio (in vivo [14]): 0.62 | TD50 (in vivo [14]; ip): 1130 mg/kg | TD50 (in vivo [14]; po): 705 mg/kg | TD50 (in vivo [15]): 394 mg/kg | TPE by the anticonvulsant tests ([16]; p.o.): one-half | TPE after oral compared with intraperitoneal administration ([16]; p.o. vs i.p.): significantly different from that obtained after intraperitoneal administration | TPE [17]: six | anticonvulsant potency [18]: most potent | anti-Metrazol activity [19, 20]: anti-Metrazol activity was present | ED50 ([19]; ip, read-out: ED50 sc Met): 43.5 mg/kg | ED50 ([19]; po, read-out: ED50 scMet): 153 mg/kg | effectiveness by the sc Met test ([19]; Phase V, mice, i.p.): effective against sc Met, sc Bic, and sc Pic in nontoxic doses | safety ratio TD3/ED97, sc Met ([19]; mice): 3.44 | Protective Index (P.I.) = TD50/ED50, sc Met ([19]; mice, i.p.): 26.02 | Time of Test / time of peak effect (TPE), sc Met ([19]; mice, i.p.): 1/2 | mice protected, sc Met, nontoxic doses [19, 21]: 97% | 24-hour LD50/ED50 safety ratio by the sc Met test ([19]; mice, in words): high | profile of anticonvulsant activity, Metrazol ([19]; nontoxic doses): elevate the Metrazol seizure threshold in nontoxic doses
